Data on 15 compounds can be found in ChEMBL document CHEMBL4052770, “Synthesis and in vitro antiproliferative activities of (5-aryl-1,2,4-oxadiazole-3-yl) methyl d-ribofuranosides” (2017).

A value given as a limit tells only on which side of the number the result lay.

What all share (format): functional
The test system of one assay is HeLa. The assay is described as follows: Antiproliferative activity against human HeLa cells after 48 hrs by sulforhodamine B assay. In general terms: Sulforhodamine B stains cellular protein and so reports cell mass.
The test system of a further assay is SW1573. The assay is described as follows: Antiproliferative activity against human SW1573 cells after 48 hrs by sulforhodamine B assay. The following applies: SW1573, 48 h.
In the next assay the test system is WiDr. The assay is described as follows: Antiproliferative activity against human WiDr cells after 48 hrs by sulforhodamine B assay.
The test system of another assay is HBL-100. The assay is described as follows: Antiproliferative activity against human HBL100 cells after 48 hrs by sulforhodamine B assay. The following applies: HBL-100, 48 h.
The subject of a further assay is A549. The assay is described as follows: Antiproliferative activity against human A549 cells after 48 hrs by sulforhodamine B assay. The following applies: A549, 48 h.
The test system of a further assay is T47D. The assay is described as follows: Antiproliferative activity against human T47D cells after 48 hrs by sulforhodamine B assay.

The GI50 is the concentration giving 50% growth inhibition. Turning to `COc1cc(-c2cc(CO[C@@H]3O[C@H](CSc4ncn[nH]4)[C@H]4OC5(CCCC5)O[C@@H]34)on2)cc(OC)c1OC`, the GI50 in the assay with HeLa stood at 67 µM; in the assay on SW1573 it was 97 µM; in the assay with WiDr, 74 µM; in the assay with HBL-100 it was 87 µM; in the assay on A549 it was 59 µM; in the assay with T47D it was 94 µM.

For the compound `COc1cc(-c2nc(CO[C@@H]3O[C@H](CSc4nnc(N)s4)[C@H]4OC5(CCCC5)O[C@@H]34)no2)cc(OC)c1OC`, the GI50 in the assay with HeLa came out at 31 µM; in the assay with SW1573, 38 µM; in the assay with WiDr it was 41 µM; in the assay on HBL-100 it was 33 µM; in the assay with A549, 36 µM; in the assay on T47D it was 42 µM.

With `CC(=O)OC[C@H]1O[C@@H](OCc2noc(-c3ccc([N+](=O)[O-])cc3)n2)[C@@H]2OC3(CCCC3)O[C@@H]21`, the GI50 in the assay on HeLa came out at 17 µM; with SW1573, 29 µM; in the assay with WiDr it was 36 µM; with HBL-100, 23 µM; in the assay on A549, 29 µM; with T47D it was 52 µM.

For the compound `Cc1ccc(S(=O)(=O)OC[C@H]2O[C@@H](OCc3noc(-c4ccc([N+](=O)[O-])cc4)n3)[C@@H]3OC4(CCCC4)O[C@@H]32)cc1`, the GI50 with HeLa, in the assay on SW1573, in the assay with WiDr, in the assay with HBL-100, with A549 and in the assay with T47D was above 100 µM throughout.

Take `CC1(C)O[C@H]2[C@H](OCc3noc(-c4ccc([N+](=O)[O-])cc4)n3)O[C@H](CSc3nnc(N)s3)[C@H]2O1`: the GI50 in the assay on HeLa, in the assay on SW1573, in the assay with WiDr, in the assay with HBL-100, in the assay with A549 and with T47D was above 100 µM throughout.

Turning to `CC1(C)O[C@H]2[C@H](OCc3noc(-c4ccc([N+](=O)[O-])cc4)n3)O[C@H](CO)[C@H]2O1`, the GI50 in the assay with HeLa was 99 µM; in the assay with SW1573, 60 µM; in the assay with WiDr, above 100 µM; in the assay on HBL-100, 99 µM; in the assay on A549, 99 µM; with T47D it was above 100 µM.

Take `COc1cc(-c2nc(CO[C@@H]3O[C@H](CSc4ncn[nH]4)[C@H]4OC5(CCCC5)O[C@@H]34)no2)cc(OC)c1OC`: the GI50 worked out at 37 µM in the assay with HeLa; 36 µM in the assay with SW1573; 42 µM with WiDr; 34 µM with HBL-100; 28 µM with A549; 44 µM in the assay on T47D.

With `COc1cc(C2=NOC(CO[C@@H]3O[C@H](CSc4ncn[nH]4)[C@H]4OC5(CCCC5)O[C@@H]34)C2)cc(OC)c1OC` (stereo not given in full), the GI50 in the assay with HeLa was 38 µM; in the assay with SW1573, above 100 µM; in the assay with WiDr, 53 µM; in the assay on HBL-100, 43 µM; with A549, 37 µM; with T47D, 55 µM.

For the compound `O=[N+]([O-])c1ccc(-c2nc(CO[C@@H]3O[C@H](CSc4ncn[nH]4)[C@H]4OC5(CCCC5)O[C@@H]34)no2)cc1`, the GI50 with HeLa was 20 µM; in the assay on SW1573, 15 µM; in the assay with WiDr, 20 µM; in the assay with HBL-100 it was 24 µM; in the assay with A549, 10 µM; in the assay with T47D it was 20 µM.

As for `Nc1nnc(SC[C@H]2O[C@@H](OCc3noc(-c4ccc([N+](=O)[O-])cc4)n3)[C@@H]3OC4(CCCC4)O[C@@H]32)s1`, the GI50 in the assay on HeLa was 28 µM; in the assay with SW1573 it was 16 µM; in the assay with WiDr it was 26 µM; in the assay on HBL-100, 26 µM; with A549 it was 14 µM; in the assay with T47D, 19 µM.

With `CC1(C)O[C@H]2[C@H](OCc3noc(-c4ccc([N+](=O)[O-])cc4)n3)O[C@H](CSc3ncn[nH]3)[C@H]2O1`, the GI50 with HeLa was 89 µM; in the assay on SW1573 it was above 100 µM; in the assay on WiDr it was above 100 µM; with HBL-100 it was above 100 µM; in the assay on A549 it was 90 µM; in the assay on T47D, above 100 µM.

Take `COc1cc(-n2cc(CO[C@@H]3O[C@H](CSc4ncn[nH]4)[C@H]4OC5(CCCC5)O[C@@H]34)nn2)cc(OC)c1OC`: the GI50 was 30 µM in the assay on HeLa; above 100 µM in the assay on SW1573; 26 µM in the assay on WiDr; 84 µM in the assay with HBL-100; 33 µM in the assay with A549; 41 µM in the assay on T47D.

On to `Nc1nnc(SC[C@H]2O[C@@H](OCc3noc(-c4ccc(Cl)cc4)n3)[C@@H]3OC4(CCCC4)O[C@@H]32)s1`, for which the GI50 in the assay with HeLa is 16 µM; in the assay with SW1573, 17 µM; in the assay on WiDr, 15 µM; with HBL-100, 30 µM; with A549, 15 µM; in the assay with T47D it was 18 µM.

Turning to `Clc1ccc(-c2nc(CO[C@@H]3O[C@H](CSc4ncn[nH]4)[C@H]4OC5(CCCC5)O[C@@H]34)no2)cc1`, the GI50 with HeLa stood at 14 µM; in the assay on SW1573, 10 µM; in the assay with WiDr, 4.5 µM; in the assay with HBL-100 it was 24 µM; in the assay on A549, 13 µM; with T47D, 10 µM.

As to `O=[N+]([O-])c1ccc(-c2nc(CO[C@@H]3O[C@H](CO)[C@H]4OC5(CCCC5)O[C@@H]34)no2)cc1`, the GI50 stood at 15 µM with HeLa; 27 µM in the assay on SW1573; 41 µM in the assay on WiDr; 17 µM in the assay on HBL-100; 32 µM with A549; 50 µM in the assay with T47D.
